The source of these data is US20030176479A1, “Use of selective EP4 receptor agonists for the treatment of liver failure, loss of patency of the ductus arteriosus, glaucoma or ocular hypertension” (priority 2002, published 2003).

SMILES strings stand for the structures. Where only a bound is given, the exact number is not on record here.

The target in the assay is T1, human EP1 receptor (Homo sapiens, UniProt P34995).
T1 construct: expressed in transfected cells
T1 sequence (P34995 1-402): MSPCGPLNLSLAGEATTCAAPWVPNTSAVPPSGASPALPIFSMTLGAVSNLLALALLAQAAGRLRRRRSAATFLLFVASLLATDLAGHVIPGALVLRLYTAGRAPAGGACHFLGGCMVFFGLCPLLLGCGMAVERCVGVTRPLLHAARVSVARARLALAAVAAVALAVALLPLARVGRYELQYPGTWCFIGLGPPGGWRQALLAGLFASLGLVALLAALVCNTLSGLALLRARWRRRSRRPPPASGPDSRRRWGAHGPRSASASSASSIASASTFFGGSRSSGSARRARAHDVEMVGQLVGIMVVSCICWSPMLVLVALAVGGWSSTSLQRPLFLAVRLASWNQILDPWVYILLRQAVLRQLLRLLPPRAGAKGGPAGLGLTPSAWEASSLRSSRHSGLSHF
The assay can be described thus: Human EP1 receptor binding assay (3H-PGE2 displacement, 293S cell membranes). The following applies: displacement of 3H-prostaglandin E2, 293S membranes, 1 hour at 25° C. An excerpt:
The compounds of Formula I or II, which are useful in the methods of the present invention, bind to the prostaglandin E2 type 4 receptor (EP4 receptor). The full-length coding sequence for the human EP1 receptor is made in accordance with the procedure in Funk et al., Journal of Biological Chemistry, 1993, 268, 26767-26772. The full-length rat EP2 receptor is made in accordance with the procedure in Nemoto et al., Prostaglandins and other Lipid Mediators, 1997, 54, 713-725. The full-length coding sequence for the human EP3 receptor is made in accordance with the procedure in Regan et al., British Journal of Pharmacology, 1994, 112, 377-385. The full-length coding sequence for the rat EP4 receptor is made in accordance with the procedure in Sando et al., Biochem. Biophys. Res. Comm. 1994, 200,1329-1333. These full-length receptors are used to prepare 293S cells expressing the human EP1, rat EP2, human EP3 or rat EP4 receptors.
Human EP1, Rat EP2, Human EP3, Rat EP4 Receptor Binding Assay
The full-length receptors described above are used to prepare 293S cells expressing the EP1, EP2, EP3, and EP4 receptors.
293S cells expressing either the human EP1, rat EP2, human EP3 or rat EP4 prostaglandin E2 receptors are generated according to methods known to those skilled in the art. Typically, PCR (polymerase chain reaction) primers corresponding to the 5′ and 3′ ends of the published full length receptor are made according to the well known methods disclosed above and are used in an RT-PCR (reverse transcriptase-polymerase chain reaction) reaction using the total RNA from human kidney (for EP1), rat kidney (for EP2), human lung (for EP3), or rat kidney (EP4) as a source. PCR products are cloned by the TA overhang method into pCR2.1 (Invitrogen Corporation, Carlsbad, Calif.) and identity of the cloned receptor is confirmed by DNA sequencing. For expression of the rat EP2 receptor, the confirmed cDNA is subcloned into the mammalian expression vector PURpCl, a vector generated by subcloning the selectable marker for puromycin resistance into the mammalian expression vector pCl (Promega, Madison, Wis.)
293S cells are transfected with either the cloned human EP1 or EP3 receptor in pcDNA3 by electroporation. Stable cell lines expressing either the human EP1 or EP3 receptor are established following selection of transfected cells with G418. 293S cells are transfected with the cloned rat EP2 receptor in PURpCi by lipid mediated transfection. Stable cell lines expressing the rat EP2 receptor are established following selection of transfected cells with puromycin. 293S cells are transfected with the cloned rat EP4 receptor in pcDNA3 by lipid mediated transfection. Stable cell lines expressing the rat EP4 receptor are established following selection of transfected cells with Geneticin® (Invitrogen, Carlsbad, Calif.).
Clonal cell lines expressing the maximal number of receptors are chosen following a whole cell ^3H-PGE2 binding assay using unlabeled PGE2 as a competitor.
Membrane Preparation: All operations are performed at 4° C. Transfected cells expressing either prostaglandin E2 type 1, type 2, type 3, or type 4 (EP1, EP2, EP3, or EP4, respectively) receptors are harvested and suspended to 2 million cells per ml in Buffer A [50 mM Tris-HCl (pH 7.4), 10 mM MgCI2, 1 mM EDTA, 1 mM Pefabloc peptide, (Boehringer Mannheim Corp., Indianapolis, Ind.), 10 uM Phosporamidon peptide, (Sigma, St. Louis, Mo.), 1 uM pepstatin A peptide, (Sigma, St. Louis, Mo.), 10 uM elastatinal peptide, (Sigma, St. Louis, Mo.), 100 uM antipain peptide, (Sigma, St. Louis, Mo.)]. The cells are lysed by sonification with a Branson Sonifier (Branson Ultrasonics Corporation, Danbury, Conn.) in 2 fifteen-second bursts. Unlysed cells and debris are removed by centrifugation at 100 ×g for 10 min. Membranes are then harvested by centrifugation at 45,000×g for 30 minutes. […]
`O=C1CCC(CCC(O)Cc2cccc(-c3ccccc3)c2)N1CCCCCCc1nn[nH]n1` (stereo not drawn) [Example 6, 5-(4-Biphenyl-3-yl-3-hydroxy-butyl)-1-[6-(2H-tetrazol-5-yl)-hexyl]-pyrrolidin-2-one] registered a half-maximal inhibitory concentration (IC50) above 3.2 µM.

The compound `O=C(O)CCCCCCN1C(=O)CC[C@@H]1CC[C@@H](O)Cc1cccc(C(F)(F)F)c1` [Example 2, 7-{2S-[3R-hydroxy-4-(3-trifluoromethyl-phenyl)-butyl]-5-oxo-pyrrolidin-1-yl}-heptanoic acid] had a half-maximal inhibitory concentration (IC50) above 3.2 µM.

The compound `O=C1CC[C@H](CCC(O)Cc2cccc(Cl)c2)N1CCCCCCc1nn[nH]n1` (stereo partly drawn) [Example 3, 5S-[4-(3-Chloro-phenyl)-3-hydroxy-butyl]-1-[6-(2H-tetrazol-5-yl)-hexyl]-pyrrolidin-2-one] registered an IC50 above 3.2 µM.

Consider `O=C(O)CCCCCCN1C(=O)CCC1CCC(O)Cc1ccccc1` (stereo not drawn) [Example 9, 7-(2-(3-hydroxy-4-phenyl-butyl)-5-oxo-pyrrolidin-1-yl)-heptanoic acid], for which the half-inhibitory concentration (IC50) is above 3.2 µM.

The compound `O=C(O)CCCCCCN1C(=O)CC[C@@H]1CC[C@@H](O)Cc1cccc(Cl)c1` [Example 1, 7-{2S-[4-(3-Chloro-phenyl)-3R-hydroxy-butyl]-5-oxo-pyrrolidin-1-yl}-heptanoic acid] had a half-maximal inhibitory concentration (IC50) above 3.2 µM.

In turn, `O=C1CC[C@H](CC[C@@H](O)Cc2cccc(C(F)(F)F)c2)N1CCCCCCc1nn[nH]n1` [Example 4, 5S-[3R-Hydroxy-4-(3-trifluoromethyl-phenyl)-butyl]-1-[6-(2H-tetrazol-5-yl)-hexyl]-pyrrolidin-2-one] displayed an IC50 above 3.2 µM.

As a reminder, the IC50 is the midpoint of a concentration-inhibition curve. A lower IC50 goes with greater potency in that assay.
